ChEMBL document CHEMBL1201862, “PubChem BioAssay data set” (2004)
Active and inactive are the calls of the source.

Tests used:
Estrogen receptor = target: T1, Estrogen receptor (Homo sapiens, UniProt P03372);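 also: potency for inhibiting coactivator peptide recruitment to the receptor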
T1 sequence (P03372 whole entry): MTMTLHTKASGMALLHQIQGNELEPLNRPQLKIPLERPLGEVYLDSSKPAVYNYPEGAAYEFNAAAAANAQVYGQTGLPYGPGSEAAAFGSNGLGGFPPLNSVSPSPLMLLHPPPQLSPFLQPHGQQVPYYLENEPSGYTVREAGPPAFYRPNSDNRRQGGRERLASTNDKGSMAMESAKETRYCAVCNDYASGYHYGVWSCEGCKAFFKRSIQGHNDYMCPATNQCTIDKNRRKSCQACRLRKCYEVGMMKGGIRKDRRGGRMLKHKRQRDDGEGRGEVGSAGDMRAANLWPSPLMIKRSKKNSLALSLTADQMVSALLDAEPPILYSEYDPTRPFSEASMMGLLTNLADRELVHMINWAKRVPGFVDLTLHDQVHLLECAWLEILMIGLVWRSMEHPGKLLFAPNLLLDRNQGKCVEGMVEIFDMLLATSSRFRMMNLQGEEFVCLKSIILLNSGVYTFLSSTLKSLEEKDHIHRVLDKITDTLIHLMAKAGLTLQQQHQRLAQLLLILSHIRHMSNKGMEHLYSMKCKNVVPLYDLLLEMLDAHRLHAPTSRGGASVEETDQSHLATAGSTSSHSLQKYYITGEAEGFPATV

Estrogen receptor beta [1] = target: T2, Estrogen receptor beta (Homo sapiens, UniProt Q92731); experiment: ERβ–SRC-3 coactivator interaction inhibitors, confirmation, orthogonal assay, biochemical, ELISA, streptavidin-HRP readout (AID 1060)
Estrogen receptor beta [2] = target: T2, Estrogen receptor beta
[3] = target: RNA-editing ligase 1, mitochondrial (Trypanosoma brucei brucei, UniProt P86926); experiment: TbREL1 ligase inhibitors, dose response, biochemical, fluorescence, Trypanosoma brucei (AID 1117295); type: functional
[4] = P. falciparum 3D7-ScDHODH growth inhibitors, dose response, SYBR Green, dry powder samples (AID 1159570); type: functional, cell-based;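 also: parasite growth measured after 72 hours of compound exposure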
[5] = HepG2 cell cytotoxicity, dose response, cytotoxicity control, plate reader, dry powder samples (AID 1159569); type: functional, cell-based;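 also: inhibitor potency with signal falling toward the positive control level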
[6] = P. falciparum Dd2 growth inhibitors, dose response, SYBR Green, dry powder samples (AID 1159566); type: functional, cell-based;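 also: potency for growth inhibition with lower SYBR green DNA signal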
[7] = P. falciparum Dd2 growth inhibitors, dose response, SYBR Green, dry powder samples, set 9 (AID 1159568); type: functional, cell-based
[8] = P. falciparum Dd2 growth inhibitors, dose response, SYBR Green, cherry-picked samples (AID 1159567); type: functional, cell-based
[9] = P. falciparum ATP4 D1247Y mutant growth inhibitors, dose response, NITD609-resistant line, SYBR Green, dry powder (AID 1159571); type: functional, cell-based;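 also: parasites synchronized at ring stage by sorbitol before testing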
Major prion protein = Major prion protein (Homo sapiens, UniProt P04156); type: functional, cell-based
[10] = target: NAD-dependent protein deacylase sirtuin-5, mitochondrial (Homo sapiens, UniProt Q9NXA8); experiment: SIRT5 desuccinylase inhibitors, dose response, biochemical, fluorescence imaging, cherry-pick, set 5 (AID 720591);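 also: desuccinylation of succinyl peptide AMC substrate read as fluorescence after trypsin release; potency of inhibitors that lower fluorescence and may act on trypsin instead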
Vero = experiment: host cell cytotoxicity of antiviral hits, dose response, cytotoxicity control for West Nile virus antiviral project, secondary assay (AID 1650); type: functional; details: Chlorocebus sabaeus
[11] = HepG2 cell cytotoxicity, dose response, cytotoxicity control, cherry-picked samples (AID 1159577); type: functional, cell-based
[12] = LGR2 antagonists, dose response, cell-based, HEK293, CRE-luciferase reporter, cherry pick, set 2 (AID 743343); type: functional;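 also: transfected cells were stimulated with diluted bursicon conditioned medium after compound addition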
[13] = HepG2 cell cytotoxicity, dose response, cytotoxicity control, plate reader, cherry-pick, antagonist series (AID 743416); type: functional, cell-based
[14] = MC4R antagonists, dose response, counter-screen for LGR2 antagonist project, cell-based, plate reader, cherry pick (AID 743444); type: functional;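 also: transfected HEK 293 cells stimulated with alpha-MSH peptide; potency of inhibitors of the alpha-MSH evoked signal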
[15] = A549 cell cytotoxicity, dose response, cytotoxicity control, plate reader, cherry-pick, antagonist series (AID 743412); type: functional, cell-based
Albumin = Albumin (Bos taurus, UniProt P02769); experiment: Counterscreen for inhibitors of T-cell receptor (TCR)-CD3 interaction: Fluorescence-based biochemical high throughput dose response assay to identify inhibitors of T-cell receptor (TCR)-CD3 interaction using a TAMRA-labeled BSA probe.; type: functional
[16] = target: T3, Voltage-gated N-type calcium channel alpha-1B subunit/Amyloid beta A4 precursor protein-binding family A member 1 (Homo sapiens, UniProt Q00975+Q02410); type: protein assay
[17] = target: T4, Zinc finger protein mex-5 (Caenorhabditis elegans, UniProt Q9XUB2); experiment: MEX-5/TCR-2 RNA interaction inhibitors, dose response, biochemical, C. elegans, fluorescence polarization (AID 1960)
T4 sequence (Q9XUB2 whole entry): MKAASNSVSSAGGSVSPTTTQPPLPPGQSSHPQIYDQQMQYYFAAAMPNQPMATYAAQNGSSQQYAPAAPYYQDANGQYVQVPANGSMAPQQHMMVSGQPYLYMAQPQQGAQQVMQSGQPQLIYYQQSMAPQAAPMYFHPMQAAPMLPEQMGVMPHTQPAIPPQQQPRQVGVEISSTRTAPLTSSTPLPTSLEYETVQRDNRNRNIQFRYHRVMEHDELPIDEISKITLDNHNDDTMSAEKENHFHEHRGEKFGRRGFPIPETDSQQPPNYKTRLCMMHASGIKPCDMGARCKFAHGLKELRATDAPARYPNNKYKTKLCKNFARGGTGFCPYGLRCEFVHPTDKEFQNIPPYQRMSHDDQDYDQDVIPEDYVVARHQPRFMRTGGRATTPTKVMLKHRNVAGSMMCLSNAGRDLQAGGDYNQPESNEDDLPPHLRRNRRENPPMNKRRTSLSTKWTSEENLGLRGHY

[18] = target: T3, Voltage-gated N-type calcium channel alpha-1B subunit/Amyloid beta A4 precursor protein-binding family A member 1; type: protein assay; remark: listed apart in the source

Cc1occc1-c1nnc(SCc2cc(=O)n3cc(Br)ccc3n2)n1C
IC50 (Estrogen receptor): > 50 µM (not active)
IC50 (Estrogen receptor beta [1]): 0.468 µM (not active)
IC50 (Estrogen receptor beta [2]): > 50 µM (not active)

COC(=O)C1=C(C)N(Cc2ccc(C(F)(F)F)cc2)C(NCc2ccccc2C(F)(F)F)=NC1c1ccc(F)cc1 (stereo not drawn)
IC50 [3]: > 96.6 µM (inactive)

COc1ccc2c3c(n(C)c2c1)[C@H](CO)N(Cc1ccc2c(c1)OCO2)CC31CN(C(=O)c2ccc3c(c2)OCO3)C1
AC50 [4]: 0.141 µM (active)
AC50 [5]: > 100 µM (inactive)
AC50 [6]: 0.13 µM (active)
AC50 [7]: 0.236 µM (active)
AC50 [8]: 0.54 µM (active)
AC50 [9]: 0.147 µM (active)

C[C@@H]1CN([C@H](C)CO)C(=O)c2cc(N(C)C)ccc2O[C@@H](C)CCCCO[C@H]1CN(C)S(=O)(=O)c1ccc(F)cc1
AC50 [7]: 10.5 µM (active)

Cc1cc(C)c2nc(SC3CCOC3=O)cc(C)c2c1 (stereo not drawn)
IC50 (cells): > 138 µM (inactive)
IC50 (Major prion protein): 3.66 µM (active)

Cc1ccc(C(C)C)c(OCCNCCc2ccccc2)c1
IC50 [3]: > 96.6 µM (inactive)

CCCCC[C@H]1CN(Cc2ccccc2)C(=O)[C@@H]1CC(=O)NCc1ccccc1
AC50 [10]: 14.9 µM (active)

CCN(CC)CCNCC1C(=O)O[C@@H]2C[C@@]3(C)CCC[C@H](C)C3=C[C@H]12 (stereo partly drawn)
CC50 (Vero): > 100 µM (active)

OC[C@@H]1Nc2ccc(C#Cc3ccc(F)cc3)cc2[C@H]2NCC[C@@H]12
AC50 [4]: 1.15 µM (active)
AC50 [5]: 32.6 µM (active)
AC50 [6]: 0.822 µM (active)
AC50 [11]: 25.1 µM (active)
AC50 [8]: 2.36 µM (active)
AC50 [9]: 1.42 µM (active)

CCOC(=O)CSc1nc(-c2ccccc2)nc2ccc(F)cc12
IC50 (cells): > 138 µM (inactive)
IC50 (Major prion protein): 1.97 µM (active)

COc1ccc2nc(-c3ccccn3)ccc2c1
AC50 [12]: 9.32 µM (active)
AC50 [13]: 29.3 µM (active)
AC50 [14]: 13.4 µM (active)
AC50 [15]: > 52 µM (inactive)

COc1ccc(C(=O)Nc2nnc(CC(=O)N/N=C/c3ccc(O)cc3O)s2)cc1
IC50 (Albumin): > 94.1 µM (inactive)
IC50 [16]: 19.8 µM (active)
EC50 [17]: > 300 µM (not active)
IC50 [18]: 2.33 µM (active)

Cc1ccc2nc(N3C(=O)C(O)=C(C(=O)c4ccc(C)o4)C3c3ccc(O)cc3)sc2c1 (stereo not drawn)
AC50 [10]: 15.1 µM (active)
